Laboratory results published in patent publication US20210253511A1, “COMPOUNDS AND USES FOR THE TREATMENT AND PREVENTION OF DISEASES AND CONDITIONS ASSOCIATE WITH OR AGGREVATED BY IMPARED MITOPHAGY” (Yissum Research Development Company of The Hebrew …, priority 2018, published 2021).

System: C. elegans worms in 200 mM paraquat (PQ)
Experiment: Paraquat survival assay
Assay type: in vivo
Conditions: 200 mM PQ; for protective effect on worms' survival in PQ (figure legend): concentration not given, log-rank test
Protocol: C. elegans strains were grown at 21° C. on nematode growth media (NGM) agar plates containing diamines or vehicle as a control. The NGM agar plates were prepared as described in L. Livshits, E. Gross, A method for measuring sulfide toxicity in the nematode Caenorhabditis elegans, MethodsX 4 (2017) 250-255. A suspension of 3 g sodium chloride (NaCl), 20 g Bacto agar, and 2.5 g of Bacto peptone in 1 L of double distilled water (DDW) was mixed and autoclaved. Then, the medium was cooled to 55° C. and supplemented with 1 ml of 100 mM CaCl2), 1 ml of 100 mM MgSO4, 25 ml of 1 M potassium phosphate buffer pH 6, and 1 ml of 5 mg/ml cholesterol (the cholesterol was dissolved in ethanol). Diamines or DDW (vehicle) were added to the NGM-agar solution. For RNAi NGM-agar plates, Isopropyl β-D-1-thiogalactopyranoside (IPTG) and ampicillin were added to a final concentration of 1 mM and 100 μg/ml, respectively. The NGM-agar solution was thoroughly vortex mixed and immediately poured into 35 mm petri dish (4 ml per plate). NGM-plates were covered with aluminum foil and dried for 24 h at room temperature (RT). 24 h before the experiment, plates were seeded with 100 μl bacteria (OD600=0.6, OP50 or HT115(DE3)). The seeded plates were covered with aluminum foil and dried for 24 h at RT.
To get synchronized C. elegans larvae, the method described in W. B. Wood, The Nematode Caenorhabditis Elegans, Cold Spring Harbor Laboratory 1988, was performed. In brief, hypochlorite/NaOH solution was made by mixing 1 ml of 5% solution of sodium hypochlorite, 800 μl of 2.5 N NaOH and 2.2 ml DDW to final concentrations of 0.5 N NaOH and 1.25% sodium hypochlorite. M9 buffer was made by dissolving 3 g KH2PO4, 6 g Na2HPO4, 5 g NaCl and 1 ml of MgSO4 from 1M stock in 1 litter of DDW. The solution pH was adjusted to 7 and sterilizes by filtration (with a 0.2 µm filter bottle). Gravid hermaphrodites was washed from the NGM plates into a 15 ml tube with M9 buffer and centrifuged for 2 min at 900×g, RT. Liquid was removed until 2 ml worms' suspension was left and added 2 ml of hypochlorite/NaOH solution. A 5 ml syringe with a 21-gauge needle was used to aspirate the worm suspension back and forth several times. After 3 min it was observed the state of the worms using a dissecting stereoscope. At this stage, approximately 50% of worms should appear broken and many of the embryos should float in the solution. The embryos were immediately sedimented using centrifugation (1690×g for 2 min) and carefully removed the supernatant and add 10 ml of M9 buffer. This washing step was repeated three additional times. The supernatant was removed until 2 ml remains and rotated the tube for 16 h at RT. The hatched L larvae were collected by centrifugation (1690×g for 3 min) and put ˜80 L in each seeded NGM assay plate. Grow the L1 (Day 1) for 3 days until they become young adults (Day 3).

[1] = compound at 0.25 mM, vs control worms
[2] = compound at 4 mM, vs control worms
[3] = tested at 0.0625 mM and 0.25 mM, not split

| SMILES | survival of worms in paraquat [1] | survival of worms in paraquat [2] | protective effect on worms' survival in PQ (figure legend) | survival of worms in paraquat (compound at 0.0625 mM, vs control worms) | survival of worms in paraquat [3] |
| --- | --- | --- | --- | --- | --- |
| NCCCCCCN [1,6-Diaminohexane] | did not have any effect | did not have any effect | – | – | – |
| N=C(N)NCCCCCCNC(=N)N [1,6-Diguanidinohexane] | significantly improve the survival of worms | – | significant protective effect | significantly improve the survival of worms | – |
| NOCCCCCCCCON [1,8-diaminooxy-octane] | – | – | significant protective effect | – | significantly improved the survival of worms in PQ |
| N=C(N)NCCCCCCCCNC(=N)N [1,8-diguanidinooctane] | – | – | significant protective effect | – | significantly improved the survival of worms in PQ |
| NOCCCCCCCCCON [1,9-diaminooxy-nonane] | – | – | significant protective effect | – | significantly improved the survival of worms in PQ |
| NCCCCCCCCCCN [1,10-Diaminodecane] | significantly improved worms' survival | significantly decreased worms' survival | – | – | – |
| NCCCCCCCCCCCCN [1,12-Diaminododecane] | did not | significantly improved their survival | – | – | – |
